These results are taken from patent US9402820B2, “Use of pyruvate or succinate to enhance the efficacy of a hypoxia activated prodrug for the treatment of tumors” (THE UNITED STATES OF AMERICA AS REPRESENTED BY THE …, priority 2011, dated 2016).

SMILES strings stand for the structures.

The test system of assay [1] is SCCVII solid tumors. Kind of assay: EPR imaging (EPRI) of tumor pO2 after i.v. pyruvate in SCC tumor-bearing mice. Format: in vivo, mouse. The conditions noted are these: for Median tumor pO2 value: before injection 11.8±1.3; for Percentage of hypoxic region (pO2<10 mmHg) in the tumors: before injection 39.7±9.8. Here is the method:
All animal experiments were carried out in compliance with the Guide for the care and use of laboratory animal resources (National Research Council, 1996) and approved by the National Cancer Institute Animal Care and Use Committee. Female C3H/Hen mice were supplied by the Frederick Cancer Research Center, Animal Production (Frederick, Md.). SCCVII solid tumors were formed by injecting 5×10^5 SCC cells subcutaneously into the right hind leg of C3H mice. Body weight measured before the experiments was 21-27 g. In EPRI and MRI measurements, mice were anesthetized by isoflurane (4% for induction and 2% for maintaining anesthesia) in medical air (750 mL/min) and positioned prone with their tumor-bearing legs placed inside the resonator. During the measurements, the breathing rate of the mice was monitored with a pressure transducer (SA Instruments Inc.) and maintained at 60±10 breaths per minute. Core body temperature was also monitored with a non-magnetic rectal temperature probe (FISO) and maintained at 37±1° C. with a flow of warm air. For administration of TAM and [1-^13C]pyruvate solution, a 30-gauge needle was cannulated into the tail vein and extended using polyethylene tubing (PE-10).
Technical details of the EPR scanner operating at 300 MHz, data acquisition based on the single-point imaging (SPI) modality, image reconstruction, and the oxygen mapping procedure were described previously (Matsumoto et al., Magn Reson Med, 55:1157-1163, 2006; and Matsumoto et al., J Clin Invest, 118:1965-1973, 2008). Isotonic [1-^13C]pyruvate solution (pH 7.4) was prepared by dissolving 30 μL of [1-^13C]pyruvic acid in 4.5 mL of alkaline solution containing 100 mg/L EDTA. After the mouse was placed in the resonator, TAM (OX063, GE Healthcare) was injected intravenously through the cannula placed in the tail vein. TAM was given as a 1.125 mmol/kg bolus followed by 0.04 mmol/kg/min continuous injection. After acquiring the first EPR data set, 1.15 mmol/kg bolus (300 μL of 96 mM) [1-^13C]pyruvate solution was injected intravenously through the cannula. EPRI measurements were carried out 30 minutes and 1 hour after [1-^13C]pyruvate injection. Then, the mouse was released. The mouse was anesthetized and canulated again, 1.125 mmol/kg TAM was injected to the mouse, and EPRI measurement was carried out 5 hours after the [1-^13C]pyruvate injection.
EPR signals were collected following the RF excitation pulses (60 ns, 80 W, 70° flip angle) using an analog digital converter (200 Msamples/s). EPR measurements were started 3 minutes after TAM injection, and it took 9 minutes to obtain a data set for a 3D image. The repetition time (TR) was 6.0 μs. The FIDs (free induction decays) were collected under a nested looping of the x, y, z gradients and each time point in the FID underwent phase modulation enabling 3D spatial encoding. In order to get reproducible values of T2* and to retain a more or less uniform image resolution, a set of 3 gradients was used, and data for corresponding images were collected in an interleaved fashion (Matsumoto et al., Magn Reson Med, 55:1157-1163, 2006). If the power spectrum of the pulse is uniform throughout the k-space for all the gradients used, the spatial resolution is simply defined by FOV (field of view) and the number of k-samples (elements in k-space).
Anatomical images of the tumor-bearing leg were obtained using 7 T MRI after the EPRI measurements. […] An identical parallel coil resonator (17 mm inner diameter and 25 mm long) with Q switch was used for both EPRI and MRI operating at 300 MHz (Matsumoto et al., J Clin Invest, 118:1965-1973, 2008).
MRI scans were conducted using a 7 T scanner controlled with ParaVision 5.0 (Bruker BioSpin MRI GmbH). […]

Assay [2] relates to SCCVII solid tumors. Kind of assay: Immunohistochemical analysis with hypoxia marker pimonidazole in SCC tumors. Format: in vivo, mouse. The following applies: control mice 21.1±1.4, n=5. Here is the method:
A hypoxia marker, pimonidazole, was given to tumor-bearing mice intravenously 30 minutes before excising tumors. The mice were euthanized, and tumor tissues were removed from mice. The tumor tissues were fixed with 4% paraformaldehyde and frozen using ultracold ethanol. The frozen tumors were sectioned to 10 μm thick using a cryostat, and the sections were thaw-mounted on glass slides. After blocking non-specific binding sites with Protein Block Serum-Free reagent (Dako North America Inc., Carpinteria, Calif.), the slides were covered by rabbit anti-pimonidazole antisera (Natural Pharmacia International, Inc., Burlington, Mass.; 1:250) overnight at 4° C. The sections were incubated with Alexa Fluor 555 anti-rabbit secondary antibody (Invitrogen, Carlsbad, Calif.; 1:500). Then they were mounted on Prolong Gold antifade reagent with DAPI (Invitrogen). Fluorescence microscopic observation was performed using an Axiovert 200 inverted fluorescent microscope (Carl Zeiss), and images of tissues were captured using Image-Pro Plus Ver. 4.0 imaging software. The pimonidazole positive area was quantified using Image J software.

Assay [3] concerns SCC tumor. Kind of assay: Tumor growth after X-irradiation (12 Gy) with [1-13C]pyruvate injection. Format: in vivo, mouse. The following applies: X-irradiation 12 Gy 30 minutes after [1-13C]pyruvate injection; X-irradiation without pyruvate 6-7 days. The text has this:
Mice were fixed in the specially designed jig for X-irradiation, by which mice were restricted from moving without anesthesia. X-irradiation (12 Gy) was delivered to tumor-bearing leg 6 days after SCC tumor implantation using a XRAD-320 (Precision X-ray Inc.).
Hypoxia is a critical factor that determines tumor resistance to radiotherapy and some kinds of chemotherapy. Although the pyruvate-induced hypoxia is transient, the decrease in oxygen concentration may limit the efficacy of cancer therapy, if the cancer treatments are provided immediately after MRI with hyperpolarized [1-^13C]pyruvate. To elucidate the effect of exogenously injected pyruvate on radiotherapy, tumor growth was monitored after X-irradiation with and without [1-^13C]pyruvate injection (FIG. 4). X-irradiation (12 Gy) without pyruvate administration suppressed the tumor growth for 6-7 days compared with non-treated control group which received neither X-irradiation nor pyruvate administration. […] Secondary mechanisms such as activation of hypoxia inducible transcription factor-1 signaling during the pyruvate-induced transient hypoxia might partially contribute to the long lasting effect of pyruvate on radiotherapy in addition to the direct effect of oxygen concentration at the time of radiation. […]

Assay [4] concerns HT29 (human colon cancer) tumors. Put plainly: HT29 tumor growth with TH-302 alone or in combination with pyruvate. The assay is classed as in vivo. The following applies: TH-302 100 mg/kg/day i.p., pyruvate 1.15 mmol/kg/day i.v. 30 min before, daily for 3 days. As for the experimental part:
(§1) Mouse legs bearing tumors were prepared by subcutaneously injecting 5×10^5 SCCVII (mouse squamous cell carcinoma) cells or 1×10^6 HT29 (human colon cancer) cells to the hind leg of C3H or athymic nude mice, respectively. When tumor size became 400-500 mm^3, treatments were initiated. Mice were treated daily for 3 days with hypoxia-activated prodrug TH-302 (100 mg/kg/day, i.p.) alone, pyruvate (1.15 mmol/kg/day, i.v.) alone, or TH-302 injection 30 min. after pyruvate injection. Treatments were started on day 7 (SCCVII; FIG. 6A) or day 8 (HT29; FIG. 6B). […] Tumor growth (volume/size in mm^3) was measured daily by caliper.

The test system of assay [5] is SCCVII (mouse squamous cell carcinoma) tumors. Put plainly: SCCVII tumor growth with TH-302 alone, pyruvate alone or in combination. The assay is classed as in vivo. The following applies: daily for 3 days. As for the experimental part: as §1
Setting [6] is: SCCVII, TH-302 100 mg/kg/day i.p., pyruvate 1.15 mmol/kg/day i.v. 30 min before.

For the molecule `CC(=O)C(=O)O` [pyruvate, 2-oxopropanoate], the “median pO2 value in tumor” value in assay [1] (1-2 hours after hyperpolarized [1-13C]pyruvate 1.15 mmol/kg i.v. bolus, control tumor group 11.7±0.7, mean±SEM, n=4) is recorded as 9.2±1.1 mmHg. In addition, in assay [1] (1-2 hours after hyperpolarized [1-13C]pyruvate 1.15 mmol/kg i.v., control tumors 37.1±5.6, mean±SEM, n=4), the “hypoxic fraction (pixels with pO2<10 mm Hg)” value was determined as 58.5±10.2%. For the same molecule, the “Median tumor pO2 value” is given as 5.8±0.6 mmHg in assay [1] (30 minutes after [1-13C]pyruvate 1.15 mmol/kg i.v., n=4); 7.7±0.6 mmHg in assay [1] (1 hour after [1-13C]pyruvate 1.15 mmol/kg i.v., n=4); 11.6±1.2 mmHg in assay [1] (5 hours after [1-13C]pyruvate 1.15 mmol/kg i.v., n=4). The “decrease of tumor pO2” value in assay [1] (30 minutes after half dose (0.58 mmol/kg b. w.)) is given as 32%. The “Percentage of hypoxic region (pO2<10 mmHg) in the tumors” value in assay [1] (30 minutes after pyruvate 1.15 mmol/kg i.v.) turned out to be 68.5±3.0%; in assay [1] (1 hour after pyruvate 1.15 mmol/kg i.v.), 63.8±2.6%; in assay [1] (5 hours after pyruvate 1.15 mmol/kg i.v.), 43.9±5.7%. For the same molecule, the “Pimonidazole positive area in tumors” value is on record as 29.5±2.9% in assay [2] (1 hour after [1-13C]pyruvate injection) and 18.7±1.8% in assay [2] (5 hours after [1-13C]pyruvate injection). Further, the “delay in tumor growth” value in assay [3] is 3 to 4 days.
In the case of `Cn1c(COP(=O)(NCCBr)NCCBr)cnc1[N+](=O)[O-]` [TH-302], in assay [4], the “Period of time until tumor becomes 3 times original tumor size” value is 6.8 days and the “Period of time until tumor becomes 4 times original tumor size” value was found to be 8.4 days. For the same molecule, in assay [5] (setting [6]), the “Period of time until tumor becomes 2 times original tumor size” value turned out to be 3.4 days and the “Period of time until tumor becomes 3 times original tumor size” value stood at 5.4 days. The “effect on SCCVII tumor growth” value in assay [5] (treatment starting 7 days post-tumor implantation) is on record as “minor or small effect”.
